Laboratory results reported in US20110288082A1, “METHODS AND COMPOSITIONS FOR INHIBITION OF THE TRANSITIONAL ENDOPLASMIC RETICULUM ATPASE” (priority 2010, published 2011).
“And” between values parts separate entries of the source, which are not always exact repeats. Equal entries are not always repeated. Where two headings read alike, the source gives them in different places.

Columns and labels:
p97 = p97 (Homo sapiens, UniProt P55072); assay: p97 ATPase assay (Kinase Glo Plus; biomol green for compounds that interfere with luciferase); type: biochemical
Description: Assay Buffer (20 μL of 2.5× concentration, where 1×=50 mM Tris pH 7.4, 20 mM MgCl2, 1 mM EDTA, 0.5 mM TCEP) was dispensed into each well of a 96 well plate. Purified p97 (25 μL of 50 μM) was diluted in 975 μL, of 1× Assay Buffer and 10 μL was dispensed in each well. Test compound (10 μL) or 5% DMSO (10 μL) was then added to each well and the plate was incubated at room temperature for 10 min. The ATPase assay was carried out by adding to each well 10 μL of 500 μM ATP (pH 7.5), incubating at room temperature for 60 min, and then adding 50 μL Kinase Glo Plus reagent (Promega) followed by a final 10 min incubation at room temperature in the dark. Luminescence was read on an Analyst AD (Molecular Devices). Compounds were assayed at a range of concentrations (0, 0.048, 0.24, 1.2, 6, 30 μM) in triplicate. The percent of remaining activity for each reaction was calculated using the following mathematical expression: ((Test Compound-High Control)/(Low Control-High Control))*100. Test_Compound is defined as wells containing test compound, Low_Control is defined as wells containing DMSO, High_Control is defined as wells containing no p97 protein. […] The result was expressed as mean +/− standard error. For assays with Myriad 12 and 19, 100 μL of biomol green reagent (Enzo Life Sciences) was added to each well instead of kinase Glo Plus (Promega) and absorbance at 630 nm was measured. This was done because these compounds interfered with luciferase activity. […]

[1] = tested on: p97-dependent Ub^G76V-GFP degradation in HeLa cells; assay: Ub^G76V-GFP degradation (turn-over) assay; type: cell-based, human
Description: Ub^G76V-GFP Degradation Assay
Two GFP images with 100 ms exposure time per well were acquired and the average GFP intensity per area of a HeLa cell was determined by using MetaXpress software. Mean GFP intensity of 300-500 cells was calculated using Excel. Normalized GFP intensity was calculated using the following formula: (Test compound−Background)/(Basal GFP intensity—Background). Where: Test compound is defined as Mean GFP intensity of Ub^G76V-GFP-expressing cells treated with the test compound. Background is defined as background GFP intensity of HeLa cells. Basal GFP intensity is defined as mean GFP intensity of Ub^G76V-GFP-expressing cells treated with DMSO. […] The percent of remaining k for each compound is calculated using the following formula: (Test compound/DMSO control)*100. Where: Test_compound is defined as k determined from wells containing test compound, DMSO control is defined as k determined from wells containing DMSO.

[2] = Homo sapiens, HeLa, read-out: IC50 (μM) Ub^G76V-GFP turn over, p97-dependent Ub^G76V-GFP degradation turn-over assay
[3] = purified p97, ATP, 60 min room temperature, mean +/- standard error
[4] = Homo sapiens, HeLa, read-out: IC50 (μM) Ub^G76V-GFP turn over, Ub^G76V-GFP-expressing HeLa cells, degradation rate constant k from 90 to 180 min, mean +/- standard error

Sequence of p97 (P55072 2-806 limits assumed): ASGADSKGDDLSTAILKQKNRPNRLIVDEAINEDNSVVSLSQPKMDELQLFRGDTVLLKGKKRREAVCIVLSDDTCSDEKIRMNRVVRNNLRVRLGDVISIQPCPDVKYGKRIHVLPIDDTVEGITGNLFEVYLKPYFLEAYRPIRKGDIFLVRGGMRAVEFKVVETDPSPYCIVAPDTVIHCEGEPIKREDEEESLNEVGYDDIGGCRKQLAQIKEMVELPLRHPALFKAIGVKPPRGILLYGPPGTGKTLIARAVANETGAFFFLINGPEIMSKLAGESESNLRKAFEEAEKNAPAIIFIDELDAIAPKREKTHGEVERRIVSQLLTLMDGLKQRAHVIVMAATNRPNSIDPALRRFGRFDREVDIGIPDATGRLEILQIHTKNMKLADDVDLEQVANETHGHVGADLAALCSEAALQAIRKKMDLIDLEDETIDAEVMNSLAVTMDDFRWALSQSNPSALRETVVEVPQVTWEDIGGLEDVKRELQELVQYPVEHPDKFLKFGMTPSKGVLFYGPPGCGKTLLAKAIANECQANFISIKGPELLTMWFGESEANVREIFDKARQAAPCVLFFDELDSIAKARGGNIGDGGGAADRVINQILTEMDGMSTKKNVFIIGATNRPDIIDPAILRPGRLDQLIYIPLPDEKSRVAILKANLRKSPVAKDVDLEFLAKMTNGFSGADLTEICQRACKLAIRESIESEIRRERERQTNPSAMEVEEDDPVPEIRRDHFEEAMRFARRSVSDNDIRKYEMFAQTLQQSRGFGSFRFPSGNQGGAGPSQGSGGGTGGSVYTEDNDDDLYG

Compound | IC50 (p97; p97 ATPase assay) [µM] | IC50 [1, 2] [µM] | IC50 (p97; [3]) | IC50 [1, 4] [µM] | IC50 ([1]; read-out: IC50 (μM) Ub^G76V-GFP turn over, Ub^G76V-GFP-expressing HeLa cells, degradation rate constant k from 90 to 180 min, mean +/- standard error) [µM]
Clc1cccc(CNc2nc(-c3ccccc3)nc3ccccc23)c1 [Cpd I-12] | 28 ± 9 | 17 ± 4 |  |  | 
Clc1ccccc1CNc1nc(-c2ccccc2)nc2ccccc12 [Cpd I-14] |  | 11 ± 3 |  |  | 
Clc1ccc(CNc2nc(-c3ccccc3)nc3ccccc23)cc1 [Cpd I-15] | > 30 | 15 ± 3 |  |  | 
Fc1ccccc1-c1nc(NCc2ccccc2Cl)c2ccccc2n1 [Cpd I-16] | 26 ± 12 | 15 ± 3 |  |  | 
CN(Cc1ccccc1)c1nc(-c2ccccc2)nc2ccccc12 [Cpd I-25] |  | 17 ± 5 |  |  | 
CN(Cc1ccccc1)c1nc(-c2ccccc2F)nc2ccccc12 [Cpd I-26] | 25 ± 4 | 6 ± 2 |  |  | 
CN(Cc1ccccc1)c1nc(-c2ccccc2[N+](=O)[O-])nc2ccccc12 [Cpd I-27] | 25 ± 11 | 11 ± 6 |  |  | 
CC(Nc1nc(-c2ccccc2)nc2ccccc12)c1ccccc1 (stereo not shown) [Cpd I-29] | 27 ± 14 | 13 ± 1 |  |  | 
CC(Nc1nc(-c2ccccc2F)nc2ccccc12)c1ccccc1 (stereo not shown) [Cpd I-31] | > 30 | 15 ± 4 |  |  | 
Clc1ccc2c(NCc3ccccc3)nc(-c3ccccc3)nc2c1 [Cpd I-32] |  | 12 ± 4 |  |  | 
c1ccc(-c2nc(N3CCc4ccccc4C3)c3ccccc3n2)cc1 [Cpd I-35] | > 30 | 19 ± 5 |  |  | 
Fc1ccccc1-c1nc(NCc2ccccc2)c2ccccc2n1 [I-1] |  |  | 1.1 µM and 3 µM | 8 ± 1.7 | 9 ± 1.3
c1ccc(CNc2nc(-c3ccccc3)nc3ccccc23)cc1 [I-2] |  |  | 4.2 ± 2.3 µM | 12 ± 3 | 
Clc1ccccc1-c1nc(NCc2ccccc2)c2ccccc2n1 [I-3] |  |  |  | 8 ± 3 | 
O=[N+]([O-])c1cccc(-c2nc(NCc3ccccc3)c3ccccc3n2)c1 [I-4] |  |  |  | 4 ± 1.6 | 
Cc1cccc(-c2nc(NCc3ccccc3)c3ccccc3n2)c1 [I-5] |  |  | 4.2 ± 0.2 µM | 17 ± 4 | 
Clc1ccc(-c2nc(NCc3ccccc3)c3ccccc3n2)cc1 [I-6] |  |  | 5.5 ± 1.9 µM | 20 ± 3 | 
O=[N+]([O-])c1ccc(-c2nc(NCc3ccccc3)c3ccccc3n2)cc1 [I-8] |  |  | 11 ± 6 µM | 19 ± 7 | 

Compound | IC50 (p97; p97 ATPase assay) [µM] | IC50 [1, 2] [µM] | IC50 (p97; [3]) | IC50 [1, 4] [µM] | IC50 ([1]; read-out: IC50 (μM) Ub^G76V-GFP turn over, Ub^G76V-GFP-expressing HeLa cells, degradation rate constant k from 90 to 180 min, mean +/- standard error) [µM]
COc1ccc(-c2nc(NCc3ccccc3)c3ccccc3n2)cc1 [I-9] |  |  | 1.6 ± 0.3 µM | 15 ± 2 | 
Cc1ccc(-c2nc(NCc3ccccc3)c3ccccc3n2)cc1 [I-10] |  |  | 5.7 ± 0.7 µM | 13 ± 2 | 
Clc1ccc(-c2nc(NCc3ccccc3)c3ccccc3n2)cc1Cl [I-11] |  |  | 7.1 ± 0.4 µM | 37 ± 6 | 
Fc1ccc(CNc2nc(-c3ccccc3)nc3ccccc23)cc1 [I-13] |  |  | 11 ± 3 µM | 19 ± 3 | 
COc1ccc(-c2nc(NCc3ccc(F)cc3)c3ccccc3n2)cc1 [I-17] |  |  | 7.8 ± 0.4 µM | 9.8 ± 3 | 
COc1ccc(CNc2nc(-c3ccc(OC)cc3)nc3ccccc23)cc1 [I-20] |  |  | 13 ± 4 µM | 15 ± 5 | 
COc1ccc(-c2nc(NCc3ccc(C)cc3)c3ccccc3n2)cc1 [I-21] |  |  | 8 ± 2 µM | 12 ± 2 | 
COc1ccc(-c2nc(NCc3ccc(Cl)cc3)c3ccccc3n2)cc1 [I-22] |  |  | 8 ± 2 µM | 9.3 ± 1 | 
Fc1ccc(CNc2nc(-c3ccc(Cl)cc3)nc3ccccc23)cc1 [I-23] |  |  | 8 ± 0.2 µM | 20 ± 5 | 
Cc1cccc(-c2nc(NCc3ccc(F)cc3)c3ccccc3n2)c1 [I-24] |  |  | 15 ± 2 µM | 12 ± 0.8 | 
CN(Cc1ccccc1)c1nc(-c2ccc([N+](=O)[O-])cc2)nc2ccccc12 [I-28] |  |  | 8.4 ± 4 µM | 28 ± 4 | 
Cc1ccc(-c2nc(NC(C)c3ccccc3)c3ccccc3n2)cc1 (stereo not shown) [I-30] |  |  | 7 ± 4 µM | 17 ± 4 | 
Cc1ccc(-c2nc(NCc3ccccc3)c3ccc(Cl)cc3n2)cc1 [I-33] |  | 24 ± 5 |  |  | 
COc1ccc(-c2nc(NCc3ccccc3)c3ccc(Cl)cc3n2)cc1 [I-34] | 25 ± 11 | 70 ± 30 |  |  | 
c1ccc(CNc2nc(Nc3ccccc3)nc3ccccc23)cc1 [II-1] |  |  |  | 3.1 ± 0.4 | 
Cc1ccc(Nc2nc(NCc3ccccc3)c3ccccc3n2)cc1 [II-2] |  |  | 2.2 ± 0.4 µM | 6.3 ± 1.4 | 
Clc1ccc(Nc2nc(NCc3ccccc3)c3ccccc3n2)cc1 [II-3] |  |  | 5.4 ± 2 µM | 5.9 ± 1.2 | 
